target: T1, human S1P1 receptor (EDG1) (Homo sapiens, UniProt P21453); assay: S1P1 GTPγS assay or S1P1 Tango assay (at least one of the above assays); assay type: cell-based; settings: read-out: pEC50 in at least one of the above assays (converted)
T1 construct: TEV protease site + Gal4-VP16 transcription factor (only in the Tango assay cells; not described for the GTPγS membranes); expressed in transfected cells; host or cells: rat hepatoma cells (membranes, GTPγS assay) or Tango EDG1-bla U2OS cells (Tango assay)
Protocol: For membrane preparations all steps were performed at 4° C. Rat hepatoma cells stably expressing the human S1P1 receptor or Rat Basophilic Leukaemia cells (RBL) stably expressing human S1P3 receptor were grown to 80% confluency before being harvested into 10 ml Phospho-Buffered Saline (PBS) and centrifuged at 1200 rpm for 5 minutes. After removal of the supernatant, the pellet was re-suspended and cells were homogenised within a glass Waring blender for 2 bursts of 15 secs in 200 mls of buffer (50 mM HEPES, 1 mM leupeptin, 25 μg/ml bacitracin, 1 mM EDTA, 1 mM PMSF, 2 μM pepstatin A). The blender was plunged into ice for 5 mins after the first burst and 10-40 mins after the final burst to allow foam to dissipate. The material was then spun at 500 g for 20 mins and the supernatant spun for 36 mins at 48,000 g. The pellet was resuspended in the same buffer as above but without PMSF and pepstatin A. The material was then forced through a 0.6 mm needle, made up to the required volume, (usually ×4 the volume of the original cell pellet), aliquoted and stored frozen at −80° C. S1P1 GTPγS assay Human S1P1 rat hepatoma membranes (1.5 μg/well) were adhered to a wheatgerm agglutinin (WGA)-coated scintillation proximity assay (SPA) beads (0.125 mg/well) in assay buffer (HEPES 20 mM, MgCl2 10 mM, NaCl 100 mM and pH adjusted to 7.4 using KOH 5M, GDP 10 μM FAC (final assay concentration) and saponin 90 μg/ml FAC was also added).
After 30 minutes pre-coupling on ice the bead and membrane suspension was dispensed into a white Greiner polypropylene LV384-well plate (5 μl/well), containing 0.1 μl of the compound. 5 μl/well [^35S]-GTPγS (0.5 nM final radioligand conc) made up in assay buffer was then added to agonist plates. The final assay cocktail (10.1 μl) was then centrifuged at 1000 rpm for 5 minutes then read immediately on a Viewlux reader.
All test compounds were dissolved in DMSO at a concentration of 10 mM and were prepared in 100% DMSO using a 1 in 4 dilution step to provide 11 point dose response curves. The dilutions were transferred to the assay plates ensuring that the DMSO concentration was constant across the plate for all assays.
All data was normalized to the mean of 16 high and 16 low control wells on each plate. A four parameter curve fit was then applied.
Recombinant EDG1-bla/U2OS cells (contain the human Endothelial Differentiation Gene 1 (EDG1) linked to a TEV protease site and a Gal4-VP16 transcription factor stably integrated into the Tango GPCR-bla U2OS parental cell line) were suspended in assay medium (Invitrogen Freestyle Expression Medium) at a density of 312, 500 cells/ml. Add 100 μl/well of the assay medium to the cell-free control wells (column 12) and 100 μl/well of the cell suspension to the test compound wells (row 2-8, column 1-10), the unstimulated control wells (DMSO) (column 11), and stimulated control wells (S1P) (row 1, column 1-10) in a Corning black-well, clear bottom 96-well plate. Cells were incubated at 37° C., 5% CO2 for 44-48 h. Add 25 μl of 5× stock solution of test compounds in assay medium with 0.5% DMSO to the test compound wells, 25 μl of 5× stock solution of agonist (S1P) in assay medium with 0.5% DMSO to the stimulated compound wells, and 25 μl of 5× stock solution of 0.5% DMSO in assay medium to the unstimulated control and cell-free control wells.
After incubation at 37° C., 5% CO2 for 5 h, 25 μl of 6× substrate mixture (6 μl Solution A (1 mg LiveBLAzer™-FRET B/G substrate (CCF4-AM) in 912 μl DMSO) plus 60 μl Solution B plus 934 μl Solution C) was added to each well and incubate at room temperature for 2 h in dark. The plate was finally read on EnVision for two emission channels (460 nm and 530 nm).
All test compounds were dissolved in DMSO at a concentration of 10 mM and were prepared in 100% DMSO using a 1 in 5 dilution step to provide 10 point dose response curves. […]

T1 sequence (P21453 whole entry, the tested form may be a part): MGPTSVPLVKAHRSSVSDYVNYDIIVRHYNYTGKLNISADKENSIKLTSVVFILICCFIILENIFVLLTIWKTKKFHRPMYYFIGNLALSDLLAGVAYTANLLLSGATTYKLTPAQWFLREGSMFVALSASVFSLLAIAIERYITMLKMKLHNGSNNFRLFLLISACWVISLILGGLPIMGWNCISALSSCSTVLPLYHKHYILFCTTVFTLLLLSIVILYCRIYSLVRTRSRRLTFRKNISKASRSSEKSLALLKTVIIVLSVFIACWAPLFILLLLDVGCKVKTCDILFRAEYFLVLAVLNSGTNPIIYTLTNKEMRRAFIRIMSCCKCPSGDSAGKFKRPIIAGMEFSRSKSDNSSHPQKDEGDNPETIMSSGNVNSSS

Structure (SMILES) | EC50
CC(C)Oc1ccc(-c2nc(-c3ccc4c(CCC(=O)O)c[nH]c4c3)no2)cc1C#N [Example 7, 3-[6-(5-{3-Cyano-4-[(1-methylethyl)oxy]phenyl}-1,2,4-oxadiazol-3-yl)-1H-indol-3-yl]propanoic acid] | < 1 nM
CC(C)Oc1ccc(-c2nc(-c3ccc4[nH]c(C(=O)O)cc4c3)no2)cc1Cl [Example 8, Sodium 5-(5-{3-chloro-4-[(1-methylethyl)oxy]phenyl}-1,2,4-oxadiazol-3-yl)-1H-indole-2-carboxylate] | ≥ 1000 nM
CC(C)Oc1ccc(-c2nc(-c3ccc(F)c4c(CCC(=O)O)cn(C)c34)no2)cc1Cl [Example 20, 3-[7-(5-{3-Chloro-4-[(1-methylethyl)oxy]phenyl}-1,2,4-oxadiazol-3-yl)-4-fluoro-1-methyl-1H-indol-3-yl]propanoic acid] | < 10 nM
CC(C)Oc1ccc(-c2nc(-c3ccc(F)c4c(CCC(=O)O)c[nH]c34)no2)cc1C#N [Example 21, 3-[7-(5-{3-Cyano-4-[(1-methylethyl)oxy]phenyl}-1,2,4-oxadiazol-3-yl)-4-fluoro-1H-indol-3-yl]propanoic acid] | < 10 nM
CCCCn1cc(CCC(=O)O)c2cccc(-c3noc(-c4ccc(OC(C)C)c(Cl)c4)n3)c21 [Example 29, 3-[1-butyl-7-(5-{3-chloro-4-[(1-methylethyl)oxy]phenyl}-1,2,4-oxadiazol-3-yl)-1H-indol-3-yl]propanoic acid] | ≥ 1000 nM
CC(C)Cn1cc(CCC(=O)O)c2cccc(-c3noc(-c4ccc(OC(C)C)c(Cl)c4)n3)c21 [Example 30, 3-[7-(5-{3-chloro-4-[(1-methylethyl)oxy]phenyl}-1,2,4-oxadiazol-3-yl)-1-(2-methylpropyl)-1H-indol-3-yl]propanoic acid] | ≥ 1000 nM
CC(C)Oc1ccc(-c2nc(-c3cccc4c(C[C@@H](C)C(=O)O)cn(C)c34)no2)cc1Cl [Example 36, (2R)-3-[7-(5-{3-chloro-4-[(1-methylethyl)oxy]phenyl}-1,2,4-oxadiazol-3-yl)-1-methyl-1H-indol-3-yl]-2-methylpropanoic acid] | < 10 nM
COc1ccc(-c2nc(-c3cccc4c(CCC(=O)O)cn(C)c34)no2)cc1OC [Example 44, 3-(7-{5-[3,4-bis(methyloxy)phenyl]-1,2,4-oxadiazol-3-yl}-1-methyl-1H-indol-3-yl)propanoic acid] | ≥ 1000 nM
CC(C)Oc1ccc(-c2nc(-c3cccc4c(CN5CCC(C(=O)O)CC5)c[nH]c34)no2)cc1Cl [Example 48, 1-{[7-(5-{3-chloro-4-[(1-methylethyl)oxy]phenyl}-1,2,4-oxadiazol-3-yl)-1H-indol-3-yl]methyl}-4-piperidinecarboxylic acid] | < 10 nM
CC(C)Oc1ccc(-c2nc(-c3cccc4c(CNCCC(=O)O)cn(C)c34)no2)cc1Cl [Example 58, N-{[7-(5-{3-chloro-4-[(1-methylethyl)oxy]phenyl}-1,2,4-oxadiazol-3-yl)-1-methyl-1H-indol-3-yl]methyl}-β-alanine] | < 1 nM
CC(C)Oc1ccc(-c2nc(-c3cccc4c(CCN5CC(C(=O)O)C5)cn(C)c34)no2)cc1Cl [Example 67, 1-{2-[7-(5-{3-chloro-4-[(1-methylethyl)oxy]phenyl}-1,2,4-oxadiazol-3-yl)-1-methyl-1H-indol-3-yl]ethyl}-3-azetidinecarboxylic acid] | < 10 nM
CC(C)Oc1ccc(-c2nc(-c3cccc4c(CCNC5(C(=O)O)CC5)cn(C)c34)no2)cc1Cl [Example 68, 1-({2-[7-(5-{3-chloro-4-[(1-methylethyl)oxy]phenyl}-1,2,4-oxadiazol-3-yl)-1-methyl-1H-indol-3-yl]ethyl}amino)cyclopropanecarboxylic acid] | < 10 nM
CC(C)Oc1ccc(-c2nc(-c3cccc4c(C(=O)NCCC(=O)O)cn(C)c34)no2)cc1Cl [Example 76, N-{[7-(5-{3-chloro-4-[(1-methylethyl)oxy]phenyl}-1,2,4-oxadiazol-3-yl)-1-methyl-1H-indol-3-yl]carbonyl}-β-alanine] | < 1 nM
CC(C)Oc1ncc(-c2nc(-c3ccc4c(CN5CCC(C(=O)O)CC5)c[nH]c4c3)no2)cc1Cl [Example 78, 1-{[6-(5-{5-chloro-6-[(1-methylethyl)oxy]-3-pyridinyl}-1,2,4-oxadiazol-3-yl)-1H-indol-3-yl]methyl}-4-piperidinecarboxylic acid] | ≥ 1000 nM

The next lines start with the values.

EC50 | Structure (SMILES)
< 10 nM | CC(C)Oc1ccc(-c2nc(-c3cccc4c(CCC(=O)O)c[nH]c34)no2)cc1Cl [Example 1, 3-[7-(5-{3-chloro-4-[(1-methylethyl)oxy]phenyl}-1,2,4-oxadiazol-3-yl)-1H-indol-3-yl]propanoic acid]
< 10 nM | CC(C)Oc1ccc(-c2nc(-c3cccc4c(CCC(=O)O)cn(C)c34)no2)cc1Cl [Example 2, 3-[7-(5-{3-Chloro-4-[(1-methylethyl)oxy]phenyl}-1,2,4-oxadiazol-3-yl)-1-methyl-1H-indol-3-yl]propanoic acid]
< 1 nM | CC(C)Oc1ccc(-c2nc(-c3cccc4c(CCC(=O)O)c[nH]c34)no2)cc1C#N [Example 3, 3-[7-(5-{3-Cyano-4-[(1-methylethyl)oxy]phenyl}-1,2,4-oxadiazol-3-yl)-1H-indol-3-yl]propanoic acid]
< 10 nM | CC(C)Oc1ccc(-c2nc(-c3ccc(F)c4c(CCC(=O)O)c[nH]c34)no2)cc1Cl [Example 19, 3-[7-(5-{3-Chloro-4-[(1-methylethyl)oxy]phenyl}-1,2,4-oxadiazol-3-yl)-4-fluoro-1H-indol-3-yl]propanoic acid]
< 10 nM | CC(C)Oc1ccc(-c2nc(-c3cccc4c(CNCCC(=O)O)c[nH]c34)no2)cc1Cl [Example 46, N-{[7-(5-{3-chloro-4-[(1-methylethyl)oxy]phenyl}-1,2,4-oxadiazol-3-yl)-1H-indol-3-yl]methyl}-β-alanine]
< 1 nM | CC(C)Oc1ccc(-c2nc(-c3cccc4c(CNCC(=O)O)c[nH]c34)no2)cc1Cl [Example 47, N-{[7-(5-{3-chloro-4-[(1-methylethyl)oxy]phenyl}-1,2,4-oxadiazol-3-yl)-1H-indol-3-yl]methyl}glycine]
< 1 nM | CC(C)Oc1ccc(-c2nc(-c3cccc4c(CN[C@H](C)C(=O)O)c[nH]c34)no2)cc1Cl [Example 49, N-{[7-(5-{3-chloro-4-[(1-methylethyl)oxy]phenyl}-1,2,4-oxadiazol-3-yl)-1H-indol-3-yl]methyl}-D-alanine]
< 1 nM | CC(C)Oc1ccc(-c2nc(-c3cccc4c(C(=O)NCCC(=O)O)c[nH]c34)no2)cc1Cl [Example 73, N-{[7-(5-{3-chloro-4-[(1-methylethyl)oxy]phenyl}-1,2,4-oxadiazol-3-yl)-1H-indol-3-yl]carbonyl}-β-alanine]
< 1 nM | CC(C)Oc1ccc(-c2nc(-c3cccc4c(C(=O)NCCCC(=O)O)c[nH]c34)no2)cc1Cl [Example 74, 4-({[7-(5-{3-chloro-4-[(1-methylethyl)oxy]phenyl}-1,2,4-oxadiazol-3-yl)-1H-indol-3-yl]carbonyl}amino)butanoic acid]
< 10 nM | CC(C)Oc1ccc(-c2nc(-c3cccc4c(C(=O)N(C)CCC(=O)O)c[nH]c34)no2)cc1Cl [Example 75, N-{[7-(5-{3-chloro-4-[(1-methylethyl)oxy]phenyl}-1,2,4-oxadiazol-3-yl)-1H-indol-3-yl]carbonyl}-N-methyl-β-alanine]

From patent publication US20100010053A1, “COMPOUNDS” (priority 2008, published 2010)
